Reference: patent publication US7320863B2 (Albert Einstein College of Medicine of Yeshiva University, priority 1996, dated 2008)

Key:
[1] = target: T1, rat sodium/iodide symporter (Rattus norvegicus, UniProt Q63008)
T1 sequence (Q63008 1-618): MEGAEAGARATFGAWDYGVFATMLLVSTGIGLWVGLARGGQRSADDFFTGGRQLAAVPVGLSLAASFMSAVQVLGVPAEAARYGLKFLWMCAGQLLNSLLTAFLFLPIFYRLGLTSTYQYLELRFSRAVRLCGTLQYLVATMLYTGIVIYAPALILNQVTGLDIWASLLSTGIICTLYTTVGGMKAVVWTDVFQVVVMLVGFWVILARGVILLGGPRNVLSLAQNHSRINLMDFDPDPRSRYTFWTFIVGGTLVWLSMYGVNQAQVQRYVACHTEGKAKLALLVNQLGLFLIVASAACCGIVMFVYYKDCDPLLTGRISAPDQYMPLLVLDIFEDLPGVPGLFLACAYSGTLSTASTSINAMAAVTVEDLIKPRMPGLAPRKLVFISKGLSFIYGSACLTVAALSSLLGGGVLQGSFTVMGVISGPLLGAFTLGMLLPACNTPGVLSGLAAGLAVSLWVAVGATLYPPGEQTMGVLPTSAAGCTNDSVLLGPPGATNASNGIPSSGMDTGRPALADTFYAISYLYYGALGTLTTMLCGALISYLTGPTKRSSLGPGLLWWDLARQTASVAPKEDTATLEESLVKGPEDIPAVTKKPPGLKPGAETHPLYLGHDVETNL
Protocol: Transcripts were injected into oocytes and oocytes were assayed for perchlorate-sensitive Na^+/I^− symport activity as described in Weiss, et al., supra.
Control assays were carried out in oocytes microinjected with water (lane-1). Na^+-dependence was ascertained by using choline in place of Na^+, and perchlorate sensitivity was tested by conducting assays in the presence of both Na+ and perchlorate.

[2] = target: T1, rat sodium/iodide symporter; assay: Iodide accumulation in COS cells transfected with sodium/iodide symporter cDNA; type: cell-based; parameters: Beginning with Met at position 1, a long open reading frame codes for a protein of 618 amino acids; expressed in transfected cells; host or cells: Xenopus laevis oocytes microinjected with cRNA transcribed in vitro (T7 RNA polymerase) from the cDNA clone in pSPORT; conditions: COS cells transfected with symporter cDNA clone, assayed 48 h after transfection
Protocol: In FIG. 1A oocytes were microinjected with water (lane 1), 50 ng mRNA from FRTL-5 cells (lane 2), or approximately 20 ng cRNA transcripts made in vitro from pools containing the indicated number of cDNA clones (lanes 3-7, numbers without parentheses at bottom of FIG. 1A). […] Inset: Double reciprocal plot. […] Each point represents the average of triplicate determinations+/−SE.
A directional cDNA library was prepared in the PSPORT (BRL) vector from poly A^+ RNA isolated from FRTL-5 cells. cRNAs were synthesized in vitro using T7 RNA polymerase in the presence of m^7 GpppG from pools of cDNA clones. Transcripts were injected into oocytes and oocytes were assayed for perchlorate-sensitive Na^+/I^− symport activity as described in Weiss, et al., supra.

Compound	generated iodide concentration gradient ([1]; 50 μM iodide in transport solution, functional volume 0.5 μl/oocyte) [fold]	Na+/I- symport activity in the presence of perchlorate ([1]; assayed in the presence of both Na+ and perchlorate, 45 min)	perchlorate sensitivity of Na+/I- symport activity [2]
I [iodide]	> 30		
[O-][Cl+3]([O-])([O-])O [perchlorate]		virtually indistinguishable from background	perchlorate-sensitive
